What was measured:
Aromatase [1] = target: T1, Aromatase (Homo sapiens, UniProt P11511); assay: Inhibition of human placental aromatase assessed as conversion of [1-beta-3H]androstenedione to […] at 100 uM after 20 mins by liquid scintillation counting; conditions: for inhibition (INH): 100 µM
T1 sequence (P11511 whole entry): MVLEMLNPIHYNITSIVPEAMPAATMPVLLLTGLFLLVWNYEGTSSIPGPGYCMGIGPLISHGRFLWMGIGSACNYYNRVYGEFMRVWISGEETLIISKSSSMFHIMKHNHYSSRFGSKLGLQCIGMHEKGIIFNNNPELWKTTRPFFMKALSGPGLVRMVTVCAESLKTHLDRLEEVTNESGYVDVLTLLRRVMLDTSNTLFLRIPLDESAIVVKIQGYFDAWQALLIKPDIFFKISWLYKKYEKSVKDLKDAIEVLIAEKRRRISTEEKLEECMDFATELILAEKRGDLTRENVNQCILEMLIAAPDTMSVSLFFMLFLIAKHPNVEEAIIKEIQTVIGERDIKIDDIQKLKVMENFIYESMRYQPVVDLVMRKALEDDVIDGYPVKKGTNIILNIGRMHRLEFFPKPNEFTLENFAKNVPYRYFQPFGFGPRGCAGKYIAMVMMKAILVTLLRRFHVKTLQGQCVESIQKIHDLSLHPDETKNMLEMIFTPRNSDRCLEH

Aromatase [2] = target: T1, Aromatase; assay: Inhibition of human placental aromatase assessed as conversion of [1-beta-3H]androstenedione to [1beta-3H]estrone after 20 mins by liquid scintillation counting
Aromatase [3] = target: T1, Aromatase; assay: Competitive inhibition of human placental aromatase by Lineweaver-Burke plot analysis
Aromatase [4] = target: T1, Aromatase; assay: Inactivation of human placental aromatase assessed as residual activity at 7.5 uM after 12 mins in presence of 0.5 mM L-cysteine; conditions: 0.2 h
Aromatase [5] = target: T1, Aromatase; assay: Inhibition of human placental aromatase assessed as conversion of [1-beta-3H]androstenedione to […] at 30 uM after 20 mins by liquid scintillation counting

SMILES | IC50 (Aromatase [2]) [nM] | other results
C=C1C(=O)O[C@H]2C[C@@H](C)[C@@H]3CC(=O)OC[C@@]3(C)C[C@H]12 | – | inhibition (INH) (Aromatase [1]): Not Active
C[C@]12CCC(=O)C(O)=C1CC[C@@H]1[C@@H]2CC[C@]2(C)C(=O)CC[C@@H]12 [FORMESTANE] | 92 | –
CCOC(=O)C1=C(C)C2C=C(c3cccs3)CC(c3ccc(Cl)cc3)=C2OC1=O (centres undefined) | – | inhibition at 100 µM (Aromatase [1]): 26%
CC1C(O)CC23COC(=O)C2=CCCC3C1(C)CCC1=CC(=O)OC1 (centres undefined) | 126000 | –
C[C@H]1C2=CC(=O)CCC(C)(O2)[C@H]2CC[C@]3(C)C(=O)CC[C@H]3[C@H]12 (some centres undefined) | 9800 | –
CC1C2=CC(=O)CCC2(C)C2CCC3(C)C(=O)CCC3C12 (centres undefined) | 274 | Ki (Aromatase [3]): 266 nM
Cc1nc2c(cc1C#N)C(Nc1ccc(Cl)cc1)Oc1ccc([N+](=O)[O-])cc1-2 (centres undefined) | 678 | Ki (Aromatase [3]): 385 nM; Activity (Aromatase [4]): Active
CCCCSC(=O)[C@@]1(C)CC[C@H]2[C@@H](CC=C3C[C@@H](OC(C)=O)CC[C@@]32C)[C@@H]1CC#N | – | inhibition at 30 µM (Aromatase [5]): 21%
CCCC(=O)Oc1cc(OC(=O)CCC)c2c(C)cc(=O)oc2c1 | 176000 | –
CC/C(=C1\C=CC(=O)S1)C(CC)c1ccc(OC(C)=O)cc1 (centres undefined) | 15500 | –
CCn1cc(C(=O)O)c(=O)c2ccc(-c3c[nH]nc3C)nc21 | – | inhibition (INH) (Aromatase [1]): Not Active
